Source: patent US8524902B2, “[1,2,4]triazolo[4,3-f]pteridines useful as inhibitors of protein kinases” (Vertex Pharmaceuticals Incorporated, priority 2006, dated 2013)
pKi: −log10 of the molar value.

Target: T1, Plk1 (Homo sapiens, UniProt P53350)
T1 construct: in the presence of 15 nM Plk1 (A20-K338)
Experiment: Plk1 inhibition assay (radioactive-phosphate incorporation)
Format: biochemical
Conditions: Ki(app) from [γ-33P]ATP incorporation, 25° C.
Protocol: Compounds of the present invention may be evaluated as inhibitors of human PLK kinase using the following assays.
Compounds were screened for their ability to inhibit Plk1 using a radioactive-phosphate incorporation assay. Assays were carried out in a mixture of 25 mM HEPES (pH 7.5), 10 mM MgCl2, and 1 mM DTT. Final substrate concentrations were 50 μM [γ-33P]ATP (136 mCi 33P ATP/mmol ATP, Amersham Pharmacia Biotech/Sigma Chemicals) and 10 μM peptide (SAM68 protein Δ332-443). Assays were carried out at 25° C. in the presence of 15 nM Plk1 (A20-K338). An assay stock buffer solution was prepared containing all of the reagents listed above, with the exception of ATP and the test compound of interest. 30 μL of the stock solution was placed in a 96 well plate followed by addition of 2 μL of DMSO stock containing serial dilutions of the test compound (typically starting from a final concentration of 10 μM with 2-fold serial dilutions) in duplicate (final DMSO concentration 5%). The plate was pre-incubated for 10 minutes at 25° C. and the reaction initiated by addition of 8 μL [γ33P]ATP (final concentration 50 μM).
(§1) The reaction was stopped after 60 minutes by the addition of 100 μL 0.14M phosphoric acid. A multiscreen phosphocellulose filter 96-well plate (Millipore, Cat no. MAPHN0B50) was pretreated with 100 μL 0.2M phosphoric acid prior to the addition of 125 μL of the stopped assay mixture. The plate was washed with 4×200 μL 0.2M phosphoric acid. After drying, 100 μL Optiphase ‘SuperMix’ liquid scintillation cocktail (Perkin Elmer) was added to the well prior to scintillation counting (1450 Microbeta Liquid Scintillation Counter, Wallac).
After removing mean background values for all of the data points, Ki(app) data were calculated from non-linear regression analysis of the initial rate data using the Prism software package (GraphPad Prism version 3.0cx for Macintosh, GraphPad Software, San Diego Calif., USA).
Compounds were screened for their ability to inhibit Plk1 using a radioactive-phosphate incorporation assay. Assays were carried out in a mixture of 25 mM HEPES (pH 7.5), 10 mM MgCl2, 0.1% BSA, and 2 mM DTT. Final substrate concentrations were 150 μM (350 μM for determining values of <1 nM) [γ-33P]ATP (115 mCi 33P ATP/mmol ATP, Amersham Pharmacia Biotech/Sigma Chemicals) and 300 μM (450 μM for determining values of <1 nM) peptide (KKKISDELMDATFADQEAK) SEQ. ID NO. 1. Assays were carried out at 25° C. in the presence of 4 nM (1 nM for determining values of <1 nM) Plk1. An assay stock buffer solution was prepared containing all of the reagents listed above, with the exception of ATP and the test compound of interest. 30 μL of the stock solution was placed in a 96 well plate followed by addition of 2 μL of DMSO stock containing serial dilutions of the test compound (typically starting from a final concentration of 10 μM with 2-fold serial dilutions) in duplicate (final DMSO concentration 5%). The plate was pre-incubated for 10 minutes at 25° C. and the reaction initiated by addition of 8 μl [γ-33P]ATP (final concentration 150 μM (350 μM for determining values of <1 nM))).
as §1, with “90” for “60”, “minutes (240 minutes for determining values of <1 nM)” for “minutes”

T1 sequence (P53350 20-338): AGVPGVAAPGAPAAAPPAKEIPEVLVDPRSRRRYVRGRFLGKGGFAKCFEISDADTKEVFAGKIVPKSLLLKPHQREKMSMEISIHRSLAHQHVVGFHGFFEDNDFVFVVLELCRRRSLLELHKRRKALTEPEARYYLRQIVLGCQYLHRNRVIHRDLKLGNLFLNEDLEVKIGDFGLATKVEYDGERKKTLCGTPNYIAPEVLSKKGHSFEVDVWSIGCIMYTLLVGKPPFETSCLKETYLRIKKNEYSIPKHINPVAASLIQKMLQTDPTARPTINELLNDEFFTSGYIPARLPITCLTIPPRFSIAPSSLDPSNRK

pKi | SMILES
> 8.00 | CC[C@@H]1c2nncn2-c2cnc(Nc3ccc(C(=O)NC)cc3COC)nc2N1C1CCCC1 [Compound I-30, (R)-4-(5-cyclopentyl-4-ethyl-4,5-dihydro-[1,2,4]triazolo[4,3-f]pteridin-7-ylamino)-3-(methoxymethyl)-N-methylbenzamide]
> 8.00 | CC[C@@H]1c2nncn2-c2cnc(Nc3ccc(C(=O)NC)cc3C)nc2N1C1CCCC1 [Compound I-6, 4-((R)-5-cyclopentyl-4-ethyl-4,5-dihydro-[1,2,4]triazolo[4,3]pteridin-7-ylamino)-N,3-dimethylbenzamide]
> 8.00 | CC[C@@H]1c2nncn2-c2cnc(Nc3ccccc3)nc2N1C1CCCC1 [Compound I-22, (R)-5-cyclopentyl-4-ethyl-N-phenyl-4,5-dihydro-[1,2,4]triazolo[4,3-f]pteridin-7-amine]
> 8.00 | CC[C@@H]1c2nnc(C)n2-c2cnc(Nc3ccc(C(=O)NC4CC4)cc3OC)nc2N1C1CCCC1 [Compound I-13, (R)-4-(5-cyclopentyl-4-ethyl-1-methyl-4,5-dihydro-[1,2,4]triazolo[4,3-f]pteridin-7-ylamino)-N-cyclopropyl-3-methoxybenzamide]
> 8.00 | CC[C@@H]1c2nncn2-c2cnc(Nc3ccc(C(=O)NC)cc3Cl)nc2N1C1CCCC1 [Compound I-4, 4-((R)-5-cyclopentyl-4-ethyl-4,5-dihydro-[1,2,4]triazolo[4,3]pteridin-7-ylamino)-3-chloro-N-methylbenzamide]
> 8.00 | CC[C@@H]1c2nncn2-c2cnc(Nc3ccc(OC(F)F)cc3)nc2N1C1CCCC1 [Compound I-33, (R)-5-cyclopentyl-N-(4-(difluoromethoxy)phenyl)-4-ethyl-4,5-dihydro-[1,2,4]triazolo[4,3-f]pteridin-7-amine]
7.00 to 8.00 | CC[C@@H]1c2nncn2-c2cnc(Nc3ccc(C(F)(F)F)nc3)nc2N1C1CCCC1 [Compound I-40, (R)-5-cyclopentyl-4-ethyl-N-(6-(trifluoromethyl)pyridin-3-yl)-4,5-dihydro-[1,2,4]triazolo[4,3-f]pteridin-7-amine]
> 8.00 | CC[C@@H]1c2nncn2-c2cnc(Nc3ccc(C(=O)NC)cc3C(F)(F)F)nc2N1C1CCCC1 [Compound I-21, (R)-4-(5-cyclopentyl-4-ethyl-4,5-dihydro-[1,2,4]triazolo[4,3-f]pteridin-7-ylamino)-N-methyl-3-(trifluoromethyl)benzamide]
> 8.00 | CC[C@@H]1c2nncn2-c2cnc(Nc3ccc(C(=O)NC4CC4)cc3)nc2N1C1CCCC1 [Compound I-11, (R)-4-(5-cyclopentyl-4-ethyl-4,5-dihydro-[1,2,4]triazolo[4,3-f]pteridin-7-ylamino)-N-cyclopropylbenzamide]
> 8.00 | CC[C@@H]1c2nncn2-c2cnc(Nc3ccc(C(=O)N[C@@H]4CCOC4)cc3OC)nc2N1C1CCCC1 [Compound I-9, 4-((R)-5-cyclopentyl-4-ethyl-4,5-dihydro-[1,2,4]triazolo[4,3-f]pteridin-7-ylamino)-3-methoxy-N—((R)-tetrahydrofuran-3-yl)benzamide]
